Results on 5 molecules are retold here after patent publication US5376673A, “Isoindoles having cardiovascular activity” (Italfarmaco S.p.A., priority 1991, dated 1994).

One experiment concerns rabbit aorta. Kind of experiment: In vitro vasorelaxing activity (aorta strip contracted with noradrenaline). The following applies: Oryctolagus cuniculus, contraction induced by noradrenaline. As to the method: The vasorelaxing activity of the compounds of the invention was determined on rabbit aorta which had been contracted with noradrenaline, according to the method described in Eur. J. Pharmacol, 141, 195 (1987).
IC50 = concentration of active substance, expressed in mole/liter,
able to inhibit by 50% the contraction of the aorta "strip" induced by […]
As usually defined, the IC50 is the concentration needed to halve the response being measured. Low readings indicate higher potency, high ones lower potency. The molecule `O=C1c2ccccc2C(O)N1CCO[N+](=O)[O-]` (centres unmarked) [Example 1, 3-Hydroxy-2-(2-nitrooxyethyl)-1-oxoisoindolin] showed an IC50 of 1300 nM.

Turning to `CC(=O)OC1c2ccccc2C(=O)N1CCO[N+](=O)[O-]` (centres unmarked) [Example 2, 3-Acetoxy-2-(2-nitrooxyethyl)-1-oxoisoindolin], the midpoint of inhibition, the IC50, lay at 1200 nM.

The molecule `CCCC(=O)OC1c2ccccc2C(=O)N1CCO[N+](=O)[O-]` (centres unmarked) [Example 3] displayed an IC50 of 2400 nM.

`O=C(OC1c2ccccc2C(=O)N1CCO[N+](=O)[O-])c1ccccc1` (centres unmarked) [Example 4, 3-Benzoyloxy-2-(5-nitrooxyethyl)-1-oxoisoindolin] had a concentration for half-maximal inhibition (IC50) of 3200 nM. This IC50 and that of the molecule before are within 1.5-fold of each other.

`O=C1c2ccccc2C(O)N1CCCCCO[N+](=O)[O-]` (centres unmarked) [Example 5, 3-Hydroxy-2-(5-nitrooxypentyl)-1-oxoisoindolin] displayed a 50% inhibitory concentration (IC50) of 13000 nM.

The test system of another experiment is Sprague Dawley anaesthetized rats. The experiment can be described thus: Vasopressine angina in the anaesthetized rat (in vivo antianginal activity). Also on record: species or system Sprague Dawley rat. The following applies: 3 mg/kg by gastric gavage, 1 hour before Arg-vasopressin i.v. The protocol:
The in vivo antianginal activity was evidenced on Sprague Dawley anaesthetized rats, weighing 350-400 g, operating according to the procedure of M. Leitold et al., Arzneim. Forsch. 36, 1454, 1986. The test was carried out administering the animal intravenously with 1 I. U./kg, equivalent to […] of Arg-vasopressin, which induces a coronary spasm which can be reproduced and evidenced electrocardiographycally with an increase in the amplitude of the T wave. The compounds of the invention were admininistered by gastric gavage at a dose of 3 mg/kg, 1 hour before administration of Argvasopressin. The antianginal effect was expressed as percent inhibition of the T wave increase versus controls.
Take `O=C1c2ccccc2C(O)N1CCO[N+](=O)[O-]` (centres unmarked) [Example 1, 3-Hydroxy-2-(2-nitrooxyethyl)-1-oxoisoindolin]: the “Effect (percent inhibition of the T wave increase versus controls)” value is given as -56.1%.

For the molecule `CCCC(=O)OC1c2ccccc2C(=O)N1CCO[N+](=O)[O-]` (centres unmarked) [Example 3], the “Effect (percent inhibition of the T wave increase versus controls)” value is reported as -55.2%.

With `O=C(OC1c2ccccc2C(=O)N1CCO[N+](=O)[O-])c1ccccc1` (centres unmarked) [Example 4, 3-Benzoyloxy-2-(5-nitrooxyethyl)-1-oxoisoindolin], the “Effect (percent inhibition of the T wave increase versus controls)” value was -34.5%.
